Laboratory results taken from US20230192657A1, “1,2,4-TRIAZOLINONE CB1 INHIBITORS” (Goldfinch Bio, Inc., priority 2020, published 2023).

Biological target: CB1 receptor (Homo sapiens, UniProt P21554)
Assay: CB1 cAMP Antagonist Assay (LANCE Ultra cAMP kit)
Assay type: cell-based
Settings: Flp-In CHO cells stably expressing the CB1 receptor; forskolin and CP55940 agonist at EC90; cAMP FRET readout

CB1 receptor, sequence (P21554 whole entry): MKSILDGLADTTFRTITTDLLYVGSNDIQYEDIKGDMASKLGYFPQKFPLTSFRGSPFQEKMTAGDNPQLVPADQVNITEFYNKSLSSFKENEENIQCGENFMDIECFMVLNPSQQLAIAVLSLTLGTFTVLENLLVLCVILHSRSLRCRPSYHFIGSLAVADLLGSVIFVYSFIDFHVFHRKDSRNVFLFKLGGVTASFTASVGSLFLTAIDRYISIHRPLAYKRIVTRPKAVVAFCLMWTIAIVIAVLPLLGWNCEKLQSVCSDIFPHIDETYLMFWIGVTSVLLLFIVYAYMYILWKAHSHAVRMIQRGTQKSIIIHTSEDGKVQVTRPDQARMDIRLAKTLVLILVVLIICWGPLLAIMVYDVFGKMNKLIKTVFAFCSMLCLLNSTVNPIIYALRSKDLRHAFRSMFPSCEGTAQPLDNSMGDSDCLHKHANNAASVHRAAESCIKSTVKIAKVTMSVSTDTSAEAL

Structure (SMILES) | IC50
Cn1c(N2CC3(CCc4ccccc43)C(c3ccc(Cl)cc3)=N2)nn(CC2CCCCC2)c1=O (stereo in doubt) [Compound 140, 3-[(1R)-3-(4-chlorophenyl)-1,2,3,5-tetrahydrospiro[indene-1,4-pyrazol]-1-yl]-1-(cyclohexylmethyl)-4-methyl-4,5-dihydro-1H-1,2,4-triazol-5-one] | 1000 to 5000 nM
Cc1ccc(Cn2nc(N3CC(c4ccccc4)C(c4ccc(Cl)cc4)=N3)n(C)c2=O)cc1F (centres unmarked) [Compound 175] | < 100 nM
C[C@@H](C(=O)NCCO)n1c(N2C[C@@H](c3ccccc3)C(c3ccc(Cl)cc3)=N2)nn(Cc2ccc(Cl)cc2)c1=O [Compound 187, (2S)-2-[3-[(4R)-3-(4-chlorophenyl)-4-phenyl-4,5-dihydropyrazol-1-yl]-1-[(4-chlorophenyl)methyl]-5-oxo-1,2,4-triazol-4-yl]-N-(2-hydroxyethyl)propanamide] | > 5000 nM
Cn1nc(N2CC(c3ccccc3)C(c3ccc(Cl)cc3)=N2)n(Cc2ccccc2)c1=O (centres unmarked) [Compound 193, 4-benzyl-5-[3-(4-chlorophenyl)-4-phenyl-4,5-dihydropyrazol-1-yl]-2-methyl-1,2,4-triazol-3-one] | 100 to 1000 nM
C[C@@H](C(N)=O)n1c(N2C[C@H](c3ccccc3)C(c3ccc(Cl)cc3)=N2)nn(Cc2ccc(Cl)cc2)c1=O [Compound 176] | < 100 nM
CN1CCN(Cc2ccc(Cn3nc(N4C[C@H](c5ccccc5)C(c5ccc(Cl)cc5)=N4)n(C)c3=O)cc2)CC1 [Compound 137] | 1000 to 5000 nM
NC(=O)Cn1c(N2C[C@@]3(CCc4ccccc43)C(c3ccc(Cl)cc3)=N2)nn(-c2ccc(Cl)cc2)c1=O [Compound 119] | > 5000 nM
NC(=O)Cn1c(N2C[C@]3(CCc4ccccc43)C(c3ccc(Cl)cc3)=N2)nn(-c2ccc(Cl)cc2)c1=O [Compound 124, 2-[1-(4-chlorophenyl)-3-[(1R)-3-(4-chlorophenyl)-1,2,3,5-tetrahydrospiro[indene-1,4-pyrazol]-1-yl]-5-oxo-4,5-dihydro-1H-1,2,4-triazol-4-yl]acetamide] | 100 to 1000 nM
Cn1nc(N2C[C@@]3(CCc4ccccc43)C(c3ccc(Cl)cc3)=N2)n(C)c1=O [Compound 141] | 1000 to 5000 nM
O=C(O)CCn1c(N2C[C@@]3(CCc4ccccc43)C(c3ccc(Cl)cc3)=N2)nn(Cc2ccc(Cl)cc2)c1=O [Compound 131] | > 5000 nM
O=c1[nH]nc(N2C[C@@H](c3ccccc3)C(c3ccc(Cl)cc3)=N2)[nH]1 [Compound 208, 5-[(4R)-3-(4-chlorophenyl)-4-phenyl-4,5-dihydropyrazol-1-yl]-2,4-dihydro-1,2,4-triazol-3-one] | > 5000 nM
